This is an account of results in patent publication US7169789B2 (Kirin Beer Kabushiki Kaisha, priority 1999, dated 2007).

Data set [1] relates to activation of MAPK within vascular endothelial cells induced by VEGF stimulation. As to the kind of experiment: Inhibitory activity against activation of MAPK within vascular endothelial cells induced by VEGF stimulation. The data set is classed as cell-based. Particulars: human funicular venous vascular endothelial cells, VEGF 50 ng/ml, phosphorylated MAPK by immunoblotting. A digest of the protocol: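 Serum-starved (0.5% FCS, 24 h) human umbilical vein endothelial cells pretreated with compound 1 h at 37 °C, then stimulated with 50 ng/ml recombinant human VEGF for 8 min.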
In general terms: In western blotting, separated proteins are transferred to a membrane and probed.

For data set [2], the system named is A375 human melanoma cells. As to the kind of experiment: Karyomorphosis test. The settings on record: test compound 10 μM and 1 μM, 48 hr, nuclei stained with propidium iodide. The data set is classed as cell-based. The protocol: A375 human melanoma cells (2×10^4) (obtained from Japanese Foundation for Cancer Research) were incolulated on a culture slide (manufactured by Falcon) and were cultured at 37° C. After the elapse of 5 hr from the initiation of the cultivation, the test compound was added to 10 μM and 1 μM, and the cultivation was continued for additional 48 hr. After the fixation of cells, 50 μg/ml propidium iodide solution containing ribonuclease (200 μg/ml) was added to stain nuclei. The stained nuclei were observed under a fluorescent microscope to analyze the nuclei for abnormality of karyomorphosis.

For data set [3], the system named is Human glioma cells GL07. In words: Antitumor effect on human glioma cells (GL07) transplanted into nude mice. The data set is classed as in vivo. Particulars: 20 mg/kg once a day for 9 days; for inhibition in vivo at 20 mg/kg: Mus musculus, Glioma cell, 216 h, read-out: TGIR, % (tumor growth inhibition rate). A digest of the protocol:
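GL07 xenografts in nude mice, grouped (n=4) at ~100 mm^3 tumor volume. Test compound 20 mg/kg p.o. or i.p. once daily for 9 days; vehicle controls. TGIR = (1−Tx/Cx)×100 from tumor volumes normalized to day-of-start volume = 1.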

Read-outs that look alike come from different tables or passages of the source.

Usually IC50 stands for the concentration at which inhibition is half-maximal. A higher IC50 goes with weaker potency in that assay.

For `COc1cc2nccc(Oc3ccc(NC(=O)Nc4ccc(Br)cn4)c(Cl)c3)c2cc1OC` [Example 17, N-(5-Bromo-2-pyridyl)-N′-{2-chloro-4-[(6,7-dimethoxy-4-guinolyl)oxy]phenyl}urea], the IC50 in data set [1] is 11 nM. Besides, the Change in morphosis entry in data set [2] is reported as “(−) (the change in karyomorphosis of cells did not take place at 10 μM)”. In data set [3] (GL07, intraperitoneal), the “TGIR, % (tumor growth inhibition rate)” value stood at 85%.

As to `COc1cc2nccc(Oc3ccc(NC(=O)Nc4ccc(F)cc4C)c(Cl)c3)c2cc1OC` [Example 14, N-{2-Chloro-4-[(6,7-dimethoxy-4-quinolyl)oxy]phenyl}-N′-(4-fluoro-2-methylphenyl)urea], it took 0.7 nM to reach half-maximal inhibition in data set [1] (Endothelial cell) (IC50). Besides, the Change in morphosis entry in data set [2] was “(−) (the change in karyomorphosis of cells did not take place at 10 μM)”. Moreover, the inhibition in vivo at 20 mg/kg in data set [3] (ip, GL07, intraperitoneal) amounted to 81%.

Molecule `CCCNC(=O)Nc1ccc(Oc2ncnc3cc(OC)c(OC)cc23)cc1Cl` [Example 62, N-{2-chloro-4-[(6,7-dimethoxy-4-quinazolinyl)-oxy]phenyl}-N′-propylurea] displayed a 50% inhibitory concentration (IC50) in data set [1] (Endothelial cell) of 16 nM. For the same molecule, in data set [2], the Change in morphosis result was “(−) (the change in karyomorphosis of cells did not take place at 10 μM)”. Besides, the inhibition in vivo at 20 mg/kg in data set [3] (GL07, oral) stood at 78%.

As for `COc1cc2nccc(Oc3ccc(NC(=O)Nc4ccc(Br)cn4)c(C)c3C)c2cc1OC` [Example 29, N-(5-Bromo-2-pyridyl)-N′-{4-[(6,7-dimethoxy-4-quinolyl)oxy]-2,3-dimethylphenyl}urea], 4.4 nM corresponded to half-maximal inhibition in data set [1] (Endothelial cell) (IC50). In addition, in data set [2], the Change in morphosis entry is “(−) (the change in karyomorphosis of cells did not take place at 10 μM)”. In addition, in data set [3] (GL07, oral), the inhibition in vivo at 20 mg/kg is 64%.

In data set [1] (Endothelial cell), `COc1cc2nccc(Oc3c(Cl)cc(NC(=O)Nc4ccc(F)cc4F)cc3Cl)c2cc1OC` [Example 49, N-{3,5-Dichloro-4-[(6,7-dimethoxy-4-quinolyl)oxy]phenyl}-N′-(2,4-difluorophenyl)urea] displayed an IC50 of 4.3 nM. Moreover, in data set [2], the Change in morphosis entry was “(−) (the change in karyomorphosis of cells did not take place at 10 μM)”.

For `COc1cc2nccc(Oc3ccc(NC(=O)Nc4ccccc4C)c(C)c3C)c2cc1OC` [Example 31, N-{4-[(6,7-Dimethoxy-4-guinolyl)oxy]-2,3-dimethylphenyl}-N′-(2-methylphenyl)urea], in data set [1], the half-inhibitory concentration (IC50) stood at 2.5 nM. Besides, the Change in morphosis result in data set [2] was “(−) (the change in karyomorphosis of cells did not take place at 10 μM)”.

Consider `COc1cc2nccc(Oc3ccc(NC(=O)Nc4ccc(Cl)cn4)c(C)c3C)c2cc1OC` [Example 28, N-(5-Chloro-2-pyridyl)-N′-{4-[(6,7-dimethoxy-4-guinolyl)oxy]-2,3-dimethylphenyl}urea], for which, in data set [1], the IC50 worked out at 4 nM. The Change in morphosis result in data set [2] is given as “(−) (the change in karyomorphosis of cells did not take place at 10 μM)”. The “TGIR, % (tumor growth inhibition rate)” value in data set [3] (GL07, intraperitoneal) was determined as 84%.

As for `COc1cc2nccc(Oc3ccc(NC(=O)Nc4ccc(F)cc4F)c(C)c3C)c2cc1OC` [Example 24, N-(2,4-Difluorophenyl)-N′-{4-[(6,7-dimethoxy-4-guinolyl)oxy]-2,3-dimethylphenyl}urea], the IC50 in data set [1] is 0.6 nM. In addition, in data set [2], the Change in morphosis result is “(−) (the change in karyomorphosis of cells did not take place at 10 μM)”. For the same molecule, in data set [3] (GL07, oral), the “TGIR, % (tumor growth inhibition rate)” value worked out at 63%.

For the molecule `COCCOc1cc2nccc(Oc3cc(C)c(NC(=O)Nc4ccccc4OC)cc3C)c2cc1OC` [Example 59, N-(4-{[6-Methoxy-7-(2-methoxyethoxy)-4-quinolyl]oxy}-2,5-dimethylphenyl)-N′-(2-methoxyphenyl)-urea], in data set [1] (Endothelial cell), the IC50 amounted to 5.8 nM. For the same molecule, the Change in morphosis entry in data set [2] is “(−) (the change in karyomorphosis of cells did not take place at 10 μM)”.

`COc1cc2nccc(Oc3ccc(NC(=O)Nc4ccc(F)cc4F)c([N+](=O)[O-])c3)c2cc1OC` [Example 48, N-(2,4-Difluorophenyl)-N′-{4-[(6,7-dimethoxy-4-quinolyl)oxy]-2-nitrophenyl}urea] returned a half-maximal inhibitory concentration (IC50) in data set [1] (Endothelial cell) of 0.5 nM. The Change in morphosis result in data set [2] was “(−) (the change in karyomorphosis of cells did not take place at 10 μM)”. Moreover, the inhibition in vivo at 20 mg/kg in data set [3] (ip, GL07, intraperitoneal) was determined as 90%.

`COc1cc2nccc(Oc3ccc(NC(=O)Nc4cccc(F)c4OC)c(C)c3C)c2cc1OC` [Example 26, N-{4-[(6,7-Dimethoxy-4-guinolyl)oxy]-2,3-dimethylphenyl}-N′-(3-fluoro-2-methoxyphenyl)urea] displayed a half-maximal inhibitory concentration (IC50) in data set [1] of 5.3 nM. The Change in morphosis result in data set [2] is reported as “(−) (the change in karyomorphosis of cells did not take place at 10 μM)”.

The molecule `COCCOc1cc2nccc(Oc3cc(C)c(NC(=O)Nc4ccc(F)cc4F)cc3C)c2cc1OC` [Example 58] returned an IC50 in data set [1] of 5.1 nM. For the same molecule, in data set [2], the Change in morphosis result is “(−) (the change in karyomorphosis of cells did not take place at 10 μM)”.

In data set [1] (Endothelial cell), `COc1ccc(NC(=O)Nc2cc(C)c(Oc3ccnc4cc(OC)c(OC)cc34)cc2C)cc1` [Example 46, N-{4-[(6,7-Dimethoxy-4-quinolyl)oxy]-2,5-dimethylphenyl}-N′-(4-methoxyphenyl)urea] returned an IC50 of 4.3 nM. The Change in morphosis entry in data set [2] is recorded as “(−) (the change in karyomorphosis of cells did not take place at 10 μM)”.

On to `CCCNC(=O)Nc1ccc(Oc2ccnc3cc(OC)c(OC)cc23)cc1Cl` [Example 13, N-{2-chloro-4-[(6,7-dimethoxy-4-quinolyl)oxy]-phenyl}-N′-propylurea], for which the IC50 in data set [1] (Endothelial cell) was found to be 2.2 nM. The Change in morphosis result in data set [2] is reported as “(−) (the change in karyomorphosis of cells did not take place at 10 μM)”. Further, in data set [3] (ip, GL07, intraperitoneal), the inhibition in vivo at 20 mg/kg worked out at 52%.

The molecule `COCCOc1cc2nccc(Oc3ccc(NC(=O)Nc4ccccc4OC)c(Cl)c3)c2cc1OC` [Example 55, N-(2-Chloro-4-{[6-methoxy-7-(2-methoxyethoxy)-4-quinolyl]oxy}phenyl)-N′-(2-methoxyphenyl)urea] registered an IC50 in data set [1] (Endothelial cell) of 2.8 nM. In data set [2], the Change in morphosis result is “(−) (the change in karyomorphosis of cells did not take place at 10 μM)”.

`COc1ccccc1NC(=O)Nc1cc(C)c(Oc2ccnc3cc(OC)c(OC)cc23)cc1C` [Example 43, N-{4-[(6,7-Dimethoxy-4-quinolyl)oxy]-2,5-dimethylphenyl}-N′-(2-methoxyphenyl)urea]: in data set [1] (Endothelial cell), half-maximal inhibition (IC50) was put at 3.8 nM. Besides, the Change in morphosis entry in data set [2] is recorded as “(−) (the change in karyomorphosis of cells did not take place at 10 μM)”.

In data set [1], `COc1cc2c(Oc3cc(C)c(NC(=O)Nc4ccc(F)cc4F)cc3C)ccnc2cc1OCCN1CCOCC1` [Example 52, N-(2,4-Difluorophenyl)-N′-(4-{[6-methoxy-7-(2-morpholinoethoxy)-4-guinolyl]oxy}-2,5-dimethylphenyl)urea] gave an IC50 of 4.4 nM. Besides, in data set [2], the Change in morphosis entry is given as “(−) (the change in karyomorphosis of cells did not take place at 10 μM)”.

Consider `COc1cc2nccc(Oc3ccc(NC(=O)Nc4ccc(F)cc4C)c(C)c3C)c2cc1OC` [Example 25, N-{4-[(6,7-Dimethoxy-4-guinolyl)oxy]-2,3-dimethylphenyl}-N′-(4-fluoro-2-methylphenyl)urea], for which, in data set [1], the IC50 amounted to 3.9 nM. Besides, the Change in morphosis result in data set [2] was “(−) (the change in karyomorphosis of cells did not take place at 10 μM)”. The “TGIR, % (tumor growth inhibition rate)” value in data set [3] (GL07, intraperitoneal) is given as 68%.

In turn, `COc1cc2nccc(Oc3ccc(NC(=O)Nc4ccc(Cl)cc4C)c(C)c3C)c2cc1OC` [Example 32, N-(4-Chloro-2-methylphenyl)-N′-{4-[(6,7-dimethoxy-4-guinolyl)oxy]-2,3-dimethylphenyl}urea] gave a concentration for half-maximal inhibition (IC50) in data set [1] of 7.3 nM. Besides, the Change in morphosis entry in data set [2] was “(−) (the change in karyomorphosis of cells did not take place at 10 μM)”.

On to `COc1ccc(NC(=O)Nc2ccc(Oc3ccnc4cc(OC)c(OC)cc34)cc2Cl)cc1.Cl` [Example 22, N-{2-Chloro-4-[(6,7-dimethoxy-4-quinolyl)oxy]phenyl}-N′-(4-methoxyphenyl)urea hydrochloride], for which half-maximal inhibition in data set [1] (Endothelial cell) (IC50) was put at 0.4 nM. Further, the Change in morphosis result in data set [2] is “(−) (the change in karyomorphosis of cells did not take place at 10 μM)”.

`COc1ccccc1NC(=O)Nc1ccc(Oc2ccnc3cc(OC)c(OC)cc23)c(C)c1C` [Example 30, N-{4-[(6,7-Dimethoxy-4-guinolyl)oxy]-2,3-dimethylphenyl}-N′-(2-methoxyphenyl)urea] displayed an IC50 in data set [1] of 1.7 nM. Besides, in data set [2], the Change in morphosis result is recorded as “(−) (the change in karyomorphosis of cells did not take place at 10 μM)”.

In data set [1], `COc1cc2nccc(Oc3ccc(NC(=O)Nc4ccccn4)c(C)c3C)c2cc1OC` [Example 33, N-{4-[(6,7-Dimethoxy-4-guinolyl)oxy]-2,3-dimethylphenyl}-N′-(2-pyridyl)urea] gave an IC50 of 3.5 nM. Also, the Change in morphosis result in data set [2] is given as “(−) (the change in karyomorphosis of cells did not take place at 10 μM)”.

For `COc1cc2nccc(Oc3ccc(NC(=O)Nc4ccc(C)cn4)c(Cl)c3)c2cc1OC` [Example 20, N-{2-Chloro-4-[(6,7-dimethoxy-4-guinolyl)oxy]phenyl}-N′-(5-methyl-2-pyridyl)urea], in data set [1], inhibition was half-maximal at 8.5 nM (IC50). In data set [2], the Change in morphosis entry is recorded as “(−) (the change in karyomorphosis of cells did not take place at 10 μM)”.
